Laboratory results as given in PMC4981850 (Scientific Reports, 2016).

Key:
[1] = molecular target: T1, hDAT (human dopamine transporter) (Homo sapiens, UniProt Q01959); experiment: two-electrode voltage clamp (-60 mV), Xenopus oocytes expressing hDAT, inward current; type: cell-based
T1 construct: gene SLC6A3

[2] = molecular target: T1, hDAT (human dopamine transporter); experiment: two-electrode voltage clamp (-60 mV), Xenopus oocytes expressing hDAT, block of transporter leak current; type: cell-based

T1 sequence (Q01959 whole entry): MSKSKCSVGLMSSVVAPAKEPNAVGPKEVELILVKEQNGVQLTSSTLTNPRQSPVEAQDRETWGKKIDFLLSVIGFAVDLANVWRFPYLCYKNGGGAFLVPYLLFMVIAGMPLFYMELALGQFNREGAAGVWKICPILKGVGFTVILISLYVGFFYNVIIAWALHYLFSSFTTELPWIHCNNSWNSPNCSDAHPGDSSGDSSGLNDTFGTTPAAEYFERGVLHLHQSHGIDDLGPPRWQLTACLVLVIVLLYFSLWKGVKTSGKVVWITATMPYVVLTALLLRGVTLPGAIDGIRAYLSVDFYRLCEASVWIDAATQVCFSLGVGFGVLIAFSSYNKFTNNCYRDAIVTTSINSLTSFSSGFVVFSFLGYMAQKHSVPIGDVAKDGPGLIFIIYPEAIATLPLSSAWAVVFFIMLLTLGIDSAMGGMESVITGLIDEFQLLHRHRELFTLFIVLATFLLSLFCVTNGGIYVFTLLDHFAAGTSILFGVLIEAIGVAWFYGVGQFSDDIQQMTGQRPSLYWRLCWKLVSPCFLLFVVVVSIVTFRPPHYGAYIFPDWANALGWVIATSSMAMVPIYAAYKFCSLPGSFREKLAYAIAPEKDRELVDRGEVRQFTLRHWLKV

| Compound | EC50 [1] | EC50 [2] |
| --- | --- | --- |
| C[C@H]1NCCO[C@@H]1c1ccccc1 [2R,3R(−)-PM, (2R,3R)-(+)-3-Methyl-2-phenylmorpholine] | 2.63 ± 0.6 µM | – |
| C[C@H]1[C@H](c2ccccc2)OCCN1C [2S,3S(+)-PDM, (2S,3S)-(+)-3,4-Dimethyl-2-phenylmorpholine] | – | 2.56 ± 0.82 µM |
| C[C@@H]1NCCO[C@H]1c1ccccc1 [2S,3S(+)-PM, (2S,3S)-(+)-3-Methyl-2-phenylmorpholine] | 0.75 ± 0.14 µM | – |
| C[C@@H]1[C@@H](c2ccccc2)OCCN1C [2R,3R(−)-PDM, (2R,3R)-(+)-3,4-Dimethyl-2-phenylmorpholine] | – | ~23.5 µM |
